pIC50: −log10 of the molar value.
Columns and labels:
tyrosinase = target: T1, tyrosinase (Mus musculus, UniProt P11344); experiment: Tyrosinase activity inhibition test (B16F1 cell lysate, L-tyrosine/MBTH, 520 nm); type: biochemical, murine; settings: lysate of B16F1 cells, 6 hours incubation at 37° C.; read-out: Tyrosine hydroxylase/Dopa oxidase IC50
T1 construct: the supernatant obtained constituted the cell lysate used as the source of tyrosinase in the enzymatic test; endogenous in cells; host or cells: B16F1 murine melanoma cells, stimulated with alpha-MSH; detergent lysate supernatant
T1 sequence (P11344 19-533): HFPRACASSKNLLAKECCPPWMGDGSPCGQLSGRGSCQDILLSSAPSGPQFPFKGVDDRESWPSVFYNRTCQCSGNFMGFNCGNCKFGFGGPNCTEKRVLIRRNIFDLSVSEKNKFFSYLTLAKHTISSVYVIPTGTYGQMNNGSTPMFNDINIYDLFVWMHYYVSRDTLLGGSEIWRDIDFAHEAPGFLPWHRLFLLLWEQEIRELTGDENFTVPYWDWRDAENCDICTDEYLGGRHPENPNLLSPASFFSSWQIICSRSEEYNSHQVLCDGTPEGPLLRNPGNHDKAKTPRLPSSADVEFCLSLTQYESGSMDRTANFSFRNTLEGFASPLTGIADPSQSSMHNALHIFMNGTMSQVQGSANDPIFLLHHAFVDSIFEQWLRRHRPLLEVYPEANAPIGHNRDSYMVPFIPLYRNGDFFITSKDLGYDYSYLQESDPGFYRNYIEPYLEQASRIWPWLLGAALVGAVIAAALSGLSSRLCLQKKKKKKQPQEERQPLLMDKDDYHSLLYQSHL
Description: The activity of the inhibitors was measured using a lysate of B16F1 cells (murine melanoma line). In the presence of L-tyrosine substrate, the tyrosinase present in these cells catalyses the hydroxylation of L-tyrosine to L-DOPA then oxidation of the L-DOPA to dopaquinone. In the presence of MBTH (3-methyl-2-benzo-thiazolinone hydrazone), dopaquinone is trapped to form a pink complex which absorbs at 520 nm.
The B16F1 cells were cultivated in DMEM medium+10% foetal calf serum+10^−9 M of αMSH for 4 days at 37° C. under 7% CO2. They were treated with trypsin, washed with PBS, counted and centrifuged. The pellet was taken up in an amount of 10^7 cells/mL in lysis buffer (sodium phosphate, 10 mM pH 6.8-Igepal 1%) and the suspension was treated with ultrasound for 10 seconds. After centrifuging for 30 minutes at 4000 rpm, the supernatant obtained constituted the cell lysate used as the source of tyrosinase in the enzymatic test.
The tests were carried out in duplicate in 384-well plates with a total volume of 50 μl. Each well contained: […]
The plate was incubated at 37° C. and a spectrographic recording was produced at 520 nm after 6 hours incubation. In order to compensate for any absorption by the products, a corrected absorbance was used (absorbance at time 6 h−absorbance at time zero). […]

[1] = tested on: MNT1 human melanoma cells; experiment: Melanogenesis inhibition test (14C-thiouracil incorporation normalized by 3H-leucine); type: cell-based; settings: MNT-1, 24 h incubation, 14C incorporation normalized by 3H incorporation
Description: (§1) The inhibition of melanogenesis was measured in MNT1 human melanoma cells using a protocol adapted from Reigner et al, Cell Mol Biol (1999) 45: 969-980. The test was based on the concomitant incorporation of 2 radiolabelled tracers: ^14C-thiouracil is incorporated into neosynthesized melanin and reflects melanogenesis, while ^3H-leucine is incorporated into proteins and reflects cell viability and, as a result, the toxicity of the test compounds.
(§2) The MNT1 cells were plated into 96-well plates in the presence of the test compounds and radioisotopes. After 24 h incubation at 37° C., the cells were washed and the quantity of the 2 radioisotopes was measured. The test compounds were dose-response tested in order to calculate the IC50 inhibition of melanogenesis on the basis of the ^14C incorporation which was normalized by the ^3H incorporation. A cell toxicity IC50 was also calculated on the basis of the ^3H incorporation.

[2] = Cell toxicity (3H-leucine incorporation) in the melanogenesis inhibition test; type: cell-based; settings: human, MNT1 human melanoma cells, 24 h incubation
Description: as §1, §2

pIC50 (tyrosinase) | melting point [°C] | Structure (SMILES) | pIC50 [1] | IC50 at 24 h [2] [µM]
5.52 |  | CCCCc1ccc(O)cc1O [4-butylresorcinol (Rucinol), 4-butylresorcinol, reference compound] | 4.82 | 55
 | 207 to 208 | O=S(=O)(Cc1ccccc1)N1CCC(c2ccc(O)cc2O)CC1 [Compound 1, 4-(1-phenylmethanesulphonylpiperidin-4-yl)-benzene-1,3-diol] | 6.70 | > 999
5.82 |  | Cc1ccc(S(=O)(=O)N2CCC(c3ccc(O)cc3O)CC2)cc1 [Compound 2, 4-[1-(toluene-4-sulphonyl)piperidin-4-yl]-benzene-1,3-diol] |  | 

— patent publication US20120323012A1, “4-(AZACYCLOALKYL) -BENZENE-1,3-DIOL DERIVATIVES AS TYROSINASE INHIBITORS AND THEIR SYNTHESIS AND USE THEREOF” (GALDERMA RESEARCH & DEVELOPMENT, priority 2009, published 2012)
